Patent US20070259865A1, “Agent for Promoting the Recovery from Dysfunction After the Onset of Central Neurological Disease” (Astellas Pharma Inc., priority 2004, published 2007)

How the values were obtained:
[1] = system: cerebral infarction rat model; assay: Foot-fault test, walking function in cerebral infarction rat model; format: in vivo; details: vs. control group; forepaw on the disordered side; Compound A 5 and 10 mg/kg; D-amphetamine 0.75 and 1.5 mg/kg intraperitoneally; FIGS. 1-3 (b)
Source text: (§1) Blood Flow Metab. 8, 474-485, 1988.

[2] = system: cerebral infarction rat model; assay: Beam-walking test, walking function in cerebral infarction rat model; format: in vivo; details: vs. control group; male spontaneous hypertension rats after MCA occlusion; Compound A 5 and 10 mg/kg; D-amphetamine 0.75 and 1.5 mg/kg intraperitoneally; FIGS. 1-3 (a)
Source text: as §1

[3] = system: spontaneous hypertension rats; assay: Effect on the circulatory system (heart rate); format: in vivo, rat
Method: After a cannula was inserted into the common carotid artery, heart rates were monitored. […] For the control group, physiological saline was administered intraperitoneally and the measurement was similarly conducted. Statistical analysis was conducted by one-way repeated-measures analysis of variance.

[4] = system: cerebral infarction rat model; assay: Staircase test, forepaw function in cerebral infarction rat model; details: vs. control group, Compound A 5 mg/kg orally five times per week, D-amphetamine 1.5 mg/kg intraperitoneally twice per week, to week 6; for forepaw dysfunction, number of displaced pellets in the staircase test: FIG. 4 (a); for forepaw dysfunction, number of eaten pellets in the staircase test: FIG. 4 (b)
[5] = system: cerebral infarction rat model; details: D-amphetamine 0.75 and 1.5 mg/kg, FIG. 5

| SMILES | improvement effect on gait function in the foot-fault test (% foot-faults) [1] | improvement effect on gait function in the beam-walking test (score) [2] | effect on heart rate ([3]; rat, in vivo) | forepaw dysfunction, number of displaced pellets in the staircase test [4] | forepaw dysfunction, number of eaten pellets in the staircase test [4] | effect on the number of steps (locomotor activity, excitatory effect) [5] | effect on heart rate ([3]; recorded until 4 hours after administration, Compound A orally, D-amphetamine intraperitoneally, vs. basal value, FIG. 6) |
| --- | --- | --- | --- | --- | --- | --- | --- |
| Cl.Fc1ccc(OC[C@@H]2CNCCO2)c2c1CCC2 [Compound A, (S)-2-[[(7-Fluoro-4-indanyl)oxy]methyl]morpholine hydrochloride] | significant improvement effect | significant improvement effect | no effect on heart rate | significant improvement effect | significant improvement effect |  |  |
| C[C@H](N)Cc1ccccc1 [D-amphetamine] |  |  |  | the effect was not significant | the effect was not significant | remarkable increase in the number of steps | significant accentuation of heart rate |
| CNCCC(Oc1ccc(C(F)(F)F)cc1)c1ccccc1 (centres unmarked) [fluoxetine, Fluoxetine] | no evident improvement effect | no evident improvement effect |  |  |  |  |  |
